# Test results reported in US8211901B2, “Naphthamide derivatives as multi-target protein kinase inhibitors and histone deacetylase inhibitors” (Shenzhen Chipscreen Biosciences Ltd., priority 2009, dated 2012).
# Legend:
# Assay type in all cases: in vivo, nu/nu mice
# [1] = Body weight in HCT-8 xenograft study (Example 52)
# Protocol: The antitumor activity of compound 31 was measured in human HCT-8 colon cancer xenograft model. The female nu/nu mice of 18˜20 g were fed by normal diet for 3 days. Then the cultured HCT-8 human colon cancer cells were implanted into the armpit of 50 mice. When tumors had reached approximately 100 mm^3, the mice were divided into 6 groups randomly. Each group has 8 mice. One group was treated with vehicle. One group was treated with sutent, the positive control drug. […] Each group was dosed orally once a day for 20 days. Tumor volumes as established by caliper measurements were recorded twice per week, along with body weights. At the end of study, the mice were killed, and tumors were weighed. The tumor growth inhibition of each group was calculated using the formula {[(the average tumor weight of vehicle group)−(the average tumor weight of drug group)]/(the average tumor weight of vehicle group)}×100%.
# [2] = Body weight in A549 xenograft study (Example 51)
# Protocol: The antitumor activity of compound 31 was measured in human A549 lung cancer xenograft model. […] Then the cultured A549 human lung cancer cells were implanted into the armpit of 50 mice. When tumors had reached approximately 6 mm in diameter, the mice were divided into 6 groups randomly. Each group has 8 mice. One group was treated with vehicle. One group was treated with sutent, the positive control drug. […] Each group was dosed orally once a day for 24 days. Tumor volumes as established by caliper measurements were recorded twice per week, along with body weights. At the end of study, the mice were killed, and tumors were weighed. The tumor growth inhibition of each group was calculated using the formula {[(the average tumor weight of vehicle group)-(the average tumor weight of drug group)]/(the average tumor weight of vehicle group)}×100%.
# [3] = Body weight in HCT-8 xenograft study (Example 55)
# Protocol: The antitumor activity of compound 33 and compound 37 were measured in human HCT-8 colon cancer xenograft model. The female nu/nu mice of 18˜20 g were fed by normal diet for 3 days. Then the cultured HCT-8 human colon cancer cells were implanted into the armpit of 50 mice. […] One group was treated with vehicle. One group was treated with sutent, the positive control drug. Two groups were treated with compound 33. The other two groups were treated with compound 37. Compound 33 was administered twice a day with an interval of 6 hours. Other drugs and vehicle were administered once a day. Each group was dosed orally for 20 days. Tumor volumes as established by caliper measurements were recorded twice per week, along with body weights. At the end of study, the mice were killed, and tumors were weighed. The tumor growth inhibition of each group was calculated using the formula {[(the average tumor weight of vehicle group)−(the average tumor weight of drug group)]/(the average tumor weight of vehicle group)}×100%.
# [4] = Body weight in SSMC7721 xenograft study (Example 56)
# Protocol: The antitumor activity of compound 33 and compound 37 were measured in human SSMC7721 liver cancer xenograft model. The female nu/nu mice of 18˜20 g were fed by normal diet for 3 days. Then the cultured SSMC7721 human liver cancer cells were implanted into the armpit of 50 mice. […] Each group has 8 mice. One group was treated with vehicle. One group was treated with sutent, the positive control drug. Two groups were treated with compound 33. The other two groups were treated with compound 37. Each group was dosed orally once a day for 30 days. Tumor volumes as established by caliper measurements were recorded twice per week, along with body weights. At the end of study, the mice were killed, and tumors were weighed. The tumor growth inhibition of each group was calculated using the formula {[(the average tumor weight of vehicle group)−(the average tumor weight of drug group)]/(the average tumor weight of vehicle group)}×100%.
# [5] = Body weight in HCT-8 xenograft study (Example 54)
# Protocol: The antitumor activity of compound 33 and compound 34 were measured in human HCT-8 colon cancer xenograft model. The female nu/nu mice of 18˜20 g were fed by normal diet for 3 days. Then the cultured HCT-8 human colon cancer cells were implanted into the armpit of 50 mice. When tumors had reached approximately 100 mm^3, the mice were divided into 6 groups randomly. Each group has 8 mice. One group was treated with vehicle. One group was treated with sutent, the positive control drug. Two groups were treated with compound 33. The other two groups were treated with compound 34. Each group was dosed orally once a day for 20 days. Tumor volumes as established by caliper measurements were recorded twice per week, along with body weights. At the end of study, the mice were killed, and tumors were weighed. The tumor growth inhibition of each group was calculated using the formula {[(the average tumor weight of vehicle group)−(the average tumor weight of drug group)]/(the average tumor weight of vehicle group)}×100%.
# [6] = 2.5 mg/kg orally once a day for 20 days
# [7] = 5 mg/kg orally once a day for 20 days
# [8] = 10 mg/kg orally once a day for 20 days
# [9] = 20 mg/kg orally once a day for 20 days
# [10] = 5 mg/kg orally once a day for 24 days
# [11] = 10 mg/kg orally once a day for 24 days
# [12] = 20 mg/kg orally once a day for 24 days
# [13] = 40 mg/kg orally once a day for 24 days
# [14] = 30 × 2 mg/kg orally twice a day with an interval of 6 hours for 20 days
# [15] = 60 × 2 mg/kg orally twice a day with an interval of 6 hours for 20 days
# [16] = 30 mg/kg orally once a day for 30 days
# [17] = 60 mg/kg orally once a day for 30 days
# [18] = 30 mg/kg orally once a day for 20 days
# [19] = 60 mg/kg orally once a day for 20 days
compound,measurement,setting,value
"COc1ccc2c(Oc3ccc4c(C(=O)Nc5ccccc5N)cccc4c3)ccnc2c1 [Example 31, N-(2-aminophenyl)-6-(7-methoxyquinolin-4-yloxy)-1-naphthamide]",Body weight (g) end,[1]; [6],24.5 ± 1.1 g
same,Body weight (g) start,[1]; [6],20.3 ± 0.8 g
same,Body weight (g) end,[1]; [7],24.8 ± 1.5 g
same,Body weight (g) start,[1]; [7],21.6 ± 1.4 g
same,Body weight (g) end,[1]; [8],23.7 ± 0.8 g
same,Body weight (g) start,[1]; [8],20.7 ± 1.1 g
same,Body weight (g) end,[1]; [9],22.5 ± 1.6 g
same,Body weight (g) start,[1]; [9],20.5 ± 1.3 g
same,Body weight (g) end,[2]; [10],24.6 ± 1.3 g
same,Body weight (g) start,[2]; [10],21.1 ± 0.6 g
same,Body weight (g) end,[2]; [11],25.1 ± 1.3 g
same,Body weight (g) start,[2]; [11],19.9 ± 1.3 g
same,Body weight (g) end,[2]; [12],24.2 ± 0.7 g
same,Body weight (g) start,[2]; [12],20.6 ± 1.1 g
same,Body weight (g) end,[2]; [13],22.6 ± 2.4 g
same,Body weight (g) start,[2]; [13],20.0 ± 0.9 g
"COc1ccc2c(Oc3ccc4c(C(=O)NCc5ccc(C(=O)Nc6ccccc6N)cc5)cccc4c3)ccnc2c1 [Example 33, N-(4-((2-aminophenyl)carbamoyl)benzyl)-6-(7-methoxyquinolin-4-yloxy)-1-naphthamide]",Body weight (g) end,[3]; [14],22.6 ± 1.6 g
same,Body weight (g) start,[3]; [14],21.1 ± 1.2 g
same,Body weight (g) end,[3]; [15],19.0 ± 1.8 g
same,Body weight (g) start,[3]; [15],20.1 ± 0.9 g
same,Body weight (g) end,[4]; [16],24.0 ± 1.7 g
same,Body weight (g) start,[4]; [16],20.8 ± 0.5 g
same,Body weight (g) end,[4]; [17],25.4 ± 2.8 g
same,Body weight (g) start,[4]; [17],21.4 ± 1.3 g
same,Body weight (g) end,[5]; [18],21.1 ± 2.2 g
same,Body weight (g) start,[5]; [18],19.0 ± 1.3 g
same,Body weight (g) end,[5]; [19],21.4 ± 1.5 g
same,Body weight (g) start,[5]; [19],19.4 ± 0.8 g
